The values that follow come from US11766068B1, “Method of treating smokeless tobacco” (Altria Client Services LLC, priority 2009, dated 2023).

In one series the test system is cells. Nature of the series: Cell death during cell wounding by washed MST, platform rocker exposure system. The format is cell-based. To be noted: for cell death associated with MST-extract exposure during cell wounding: MST-extract containing 9.5 mM chelator, with washed MST, 30 minutes. The procedure: Cell death was measured immediately following treatment.
We then treated cells for 30 minutes with MST-extract/chelator preparations in the presence of washed MST using the platform exposure system and assessed cell death immediately following treatment.

For series [1] the following is noted: for chelation of free calcium of MST-extract: 9.5 mM chelator in MST-extract. The procedure:
The term “free” with regard to (1) calcium and (2) iron refers to (1) Ca^2+ and (2) Fe^2+ and/or Fe^3+, respectively. Determination of an amount of free iron and/or free calcium in smokeless tobacco can be made by first incubating the smokeless tobacco with any chelators that may be used for an appropriate amount of time (for example, one day), then separating extract by centrifugation with glass beads. […] Then, fifteen grams of Glass Beads (Kimble; 6 MM catalog # 13500-6) can be added to the Vectrospin™ tube containing the tobacco. The tube is preferably centrifuged at 2200 g for 20 minutes to recover tobacco extract. Free calcium and iron can be measured using the respective QuantiChrom™ assay kits (BioAssay Systems, Hayward, CA) according to the manufacturer’s instructions.

Another series relates to Klebsiella pneumoniae. Particulars: cited from earlier work.
In series [2] the test system is HOK-16B cells. Nature of the series: Morphologic assessment of necrotic/apoptotic cell death (Hema 3 staining). The format is cell-based, human. Particulars: for protection from STE-induced cell death: TROLOX 20 µmol/L, L-ascorbic acid 50 µmol/L or deferoxamine 50 µmol/L, 30 min prior to STE, FIG. 1D. The procedure:
(§1) Extracts of smokeless tobacco were prepared in cell growth medium as follows. One gram of reference smokeless tobacco was mixed with 10 ml of cell growth medium and placed on a shaker at 300 rpm and allowed to mix for 2 hours at 37° C. It was then centrifuged at 125 g for 10 minites at 4° C. The extracted supernatant was collected and centrifuged at 14,000 g for 1 hour at 4° C. The supernatant was filtered using a 0.22 µm filter, divided into aliquots, and immediately stored at -80° C. The extracted supernatant yielded a 100 mg/ml smokeless tobacco extract (STE) solution, which was serially diluted to obtain the doses of STE (1-100 mg/ml) used.
The primary HOK cells, isolated from human oral mucosa, were plated on poly-L-lysine coated plates at a density of 5 × 10^5 cells/well in a 12-well plate and cultured in keratinocyte medium at 37° C. in a humidified atmosphere containing 5% CO2 (v/v). HOK-16B cells were plated at a density of 5 × 10^5 cells/well in a 12-well plate and cultured in keratinocyte growth medium supplemented with 0.1 ng/ml epidermal growth factor, 5 µg/ml insulin, 30 µg/mlgentamicin, and 50 µg/mlamphoterecin at 37° C. in a humidified atmosphere containing 5% CO2 (v/v). The Het-1A cells were attached to plates pre-coated with LHC-9 medium supplemented with 0.01 mg/ml fibronectin, 0.03 mg/ml bovine collagen type I and 0.01 mg/ml bovine serum albumin for 1 hour, at a density of 5 × 10^5 cells/well in a 12-well plate and cultured in LHC-9 medium at 37° C. in a humidified atmosphere containing 5% CO2 (v/v). Unless otherwise indicated, cells were exposed to STE at 24 hours after plating.
Cells were treated with TROLOX (6-hydroxy-2,5,7,8-tetramethylchroman-2-carboxylic acid, a water-soluble derivative of vitamin E) at 20 µmol/L, L-ascorbic acid (50 µmol/L), or deferoxamine (50 µmol/L) 30 min prior to STE addition. Treatment was from a 10 mM stock solution of each agent, and the maximal concentration of vehicle [dimethyl sulfoxide (DMSO)] in culture medium was 0.01% (v/v). When possible, agents were diluted in appropriate cell culture medium (TROLOX, L-ascorbic acid, deferoxamine). Exposure to STE is expressed in terms of the amount of reference MST used to produce the total volume of STE [i.e., 100 mg/ml (w/v)]. The indicated concentrations of STE (1-100 mg/ml) exposure were chosen for these studies because they are within the reference range of previously cited works involving smokeless tobacco exposure (Bagchi et al., “Smokeless tobacco, oxidative stress, apoptosis, and antioxidants in human oral keratinocytes.: Free Radic. Biol. Med. 26, 992-1000 (1999); Mangipudy et al., “Role of nitric oxide in the induction of apoptosis by smokeless tobacco extract.” Mol Cell Biochem. 200, 51-57 (1999); and Petro, “Modulation of IL-12 p35 and p40 promoter activity by smokeless tobacco extract is associated with an effect upon activation of NF-kappaB but not IRF transcription factors.” Int. Immunopharmacol.
Morphologic assessment of viable cells and apoptotic and necrotic cell death was performed as follows. Cells were harvested 3 hours after STE exposure, unless otherwise noted, by treatment with trypsin-EDTA for approximately 5 minutes at 37° C. As some apoptotic cells detached from the culture substratum into the medium, these cells were also collected by centrifugation of the medium at 125 g for 5 minutes. […] Nuclear and total cellular morphology were evaluated. […]

Series [3] deals with HOK-16B cells. Kind of series: Intracellular ROS generation (DCFH-DA fluorescence) after STE exposure. The format is cell-based, human. Particulars: TROLOX 20 µmol/L, L-ascorbic acid 50 µmol/L or deferoxamine 50 µmol/L, 30 min prior to STE addition; FIG. 1C. On the procedure:
as §1, with “used. […]” for “used.”
The intracellular generation of reactive oxygen species (ROS) was measured by using membrane permeable oxidation-sensitive fluorescent dye DCFH-DA. […] Fluorescence measurements were obtained 0 to 3 hours after STE addition, at the indicated concentrations, with a plate reader. Thirty minutes before the measurement of ROS in the plate reader, cells were incubated with DCFH-DA (25 µmol/L) or DMSO vehicle. The medium was then rapidly removed, the cells were washed in ice-cold phosphate-buffered saline and replaced with medium lacking dye, and the plate was placed into the plate reader. Data at each time point are presented corrected for basal fluorescence of vehicle-treated cells at the same time point. […]

Turning to `O=C(O)CN(CCN(CC(=O)O)CC(=O)O)CC(=O)O` [EDTA, ethylenediamine tetraacetic acid], the “cell death associated with MST-extract exposure during cell wounding” value with cells is recorded as “reduced cell death”. Also, the “chelation of free calcium of MST-extract” value in series [1] is listed as “nearly all”. In the series on Klebsiella pneumoniae, the “capsule production of Klebsiella pneumoniae” value is listed as “reduced capsule production”.

As for `O=C(O)CN(CCOCCOCCN(CC(=O)O)CC(=O)O)CC(=O)O` [EGTA, ethylene glycol tetraacetic acid], the “cell death associated with MST-extract exposure during cell wounding” value in the series with cells is “reduced cell death”. Also, the “cell death with chelator-treated high Ca2+ medium in combination with washed MST” value with cells (free calcium reduced to less than 2 mM) is given as “significantly reduced degree of cell death”. Moreover, the “chelation of free calcium of MST-extract” value in series [1] is “nearly all”. The “free calcium levels in the high Ca2+ medium after chelator addition” value in series [1] (13.5 mM Ca2+ medium) was “less than 2 mM”. Further, the “capsule production of Klebsiella pneumoniae” value in the series on Klebsiella pneumoniae is on record as “reduced capsule production”.

Consider `[Cl][Fe]([Cl])[Cl]` [FeCl3], for which the “percent necrotic cell death after 3 hours” value with HOK-16B cells [2] (free iron 14 pM in cell culture medium without STE, 0 pM gave 4.9 ± 0.6%) stood at 13.4 ± 1.0%; in the series on HOK-16B cells [2] (free iron 31 pM in cell culture medium without STE) it was 26.2 ± 3.5%; with HOK-16B cells [2] (free iron 71 pM in cell culture medium without STE), 37.9 ± 4.5%.

For the molecule `O=C1O[C@H]([C@@H](O)CO)C(O)=C1O` [L-ascorbic acid], the “protection from STE-induced cell death” value with HOK-16B cells [2] is on record as “can protect against cell death”. Besides, the “production of ROS induced by STE” value in the series with HOK-16B cells [3] is “completely suppressed”.

`Cc1c(C)c2c(c(C)c1O)CCC(C)(C(=O)O)O2` (stereo not drawn) [TROLOX, 6-hydroxy-2,5,7,8-tetramethylchroman-2-carboxylic acid]: the “protection from STE-induced cell death” value with HOK-16B cells [2] is listed as “can protect against cell death”. In addition, the “production of ROS induced by STE” value with HOK-16B cells [3] is recorded as “completely suppressed”.
